Converted amounts (≈) assume the structure as drawn.

As usually defined, the MIC is the smallest concentration in the dilution series that meets the test's criterion for growth inhibition. Read a low MIC as inhibition by little substance.

What all share (assay type): functional
The test system of one assay is Bacillus. The assay can be described thus: Antibacterial activity against Bacillus proteus ATCC 13315 after 24 hrs by two-fold microbroth dilution method. Particulars: ATCC 13315, 24 h.
For the next assay, the system named is Escherichia coli. Briefly: Antibacterial activity against Escherichia coli JM109 after 24 hrs by two-fold microbroth dilution method. To be noted: JM109, 24 h.
The next assay relates to Pseudomonas aeruginosa. The assay can be described thus: Antibacterial activity against Pseudomonas aeruginosa ATCC 27853 after 24 hrs by two-fold microbroth dilution method. Particulars: ATCC 27853, 24 h. (Dilution methods test growth across graded concentrations, often in twofold steps.)
Assay [1] is described as follows: Antibacterial activity against Eberthella typhosa ATCC 14028 after 24 hrs by two-fold microbroth dilution method. To be noted: ATCC 14028, 24 h.
Assay [2] relates to Staphylococcus aureus. Briefly: Antibacterial activity against methicillin-resistant Staphylococcus aureus N315 after 24 hrs by two-fold microbroth dilution method. Particulars: N315, 24 h.
The subject of assay [3] is Staphylococcus aureus. Briefly: Antibacterial activity against Staphylococcus aureus ATCC 25923 after 24 hrs by two-fold microbroth dilution method. Particulars: ATCC 25923, 24 h.
A further assay has as its system Bacillus spizizenii. The assay can be described thus: Antibacterial activity against Bacillus subtilis ATCC 6633 after 24 hrs by two-fold microbroth dilution method. Particulars: ATCC 6633, 24 h.
In another assay the test system is Micrococcus luteus. The assay can be described thus: Antibacterial activity against Micrococcus luteus ATCC 4698 after 24 hrs by two-fold microbroth dilution method. To be noted: NCTC 2665, 24 h.
In a further assay the test system is Cyberlindnera jadinii. Briefly: Antifungal activity against Candida utilis ATCC 9950 after 24 hrs by two-fold microbroth dilution method. To be noted: Williopsis jadinii, ATCC 9950, 24 h.
Another assay deals with Aspergillus flavus. The assay can be described thus: Antifungal activity against Aspergillus flavus ATCC 204304 after 24 hrs by two-fold microbroth dilution method. Particulars: ATCC 204304, 24 h.
For another assay, the system named is Saccharomyces cerevisiae. Briefly: Antifungal activity against Saccharomyces cerevisiae ATCC 9763 after 24 hrs by two-fold microbroth dilution method. To be noted: ATCC 9763, 24 h.
For another assay, the system named is Candida albicans. The assay can be described thus: Antifungal activity against Candida albicans ATCC 10231 after 24 hrs by two-fold microbroth dilution method. To be noted: ATCC 10231, 24 h.
Another assay deals with Pichia norvegensis. Briefly: Antifungal activity against Candida mycoderma ATCC 9888 after 24 hrs by two-fold microbroth dilution method. Particulars: ATCC 9888, 24 h.

On to `CCn1c2ccc(-c3csc(N)n3)cc2c2cc(-c3csc(N)n3)ccc21`, for which the MIC against Bacillus was determined as 256 µg/mL (≈ 654 µM); against Escherichia coli, 128 µg/mL (≈ 327 µM); with Pseudomonas aeruginosa, 256 µg/mL (≈ 654 µM); in [1], 256 µg/mL (≈ 654 µM); in the assay with Staphylococcus aureus [2] it was 512 µg/mL (≈ 1310 µM); against Staphylococcus aureus [3], 256 µg/mL (≈ 654 µM). In addition, the MIC against Bacillus spizizenii came to 256 µg/mL (≈ 654 µM); against Micrococcus luteus, 128 µg/mL (≈ 327 µM); against Cyberlindnera jadinii, 128 µg/mL (≈ 327 µM); in the assay with Aspergillus flavus, 256 µg/mL (≈ 654 µM); with Saccharomyces cerevisiae, 256 µg/mL (≈ 654 µM); against Candida albicans, 64 µg/mL (≈ 163 µM). This molecule registered an MIC in the assay with Pichia norvegensis of 64 µg/mL (≈ 163 µM).

On to `CCCCCCCCCCCCCCCCn1c2ccc(C(=O)CCl)cc2c2cc(C(=O)CCl)ccc21`, for which the MIC stood at 256 µg/mL (≈ 470 µM) with Bacillus; 256 µg/mL (≈ 470 µM) with Escherichia coli; 256 µg/mL (≈ 470 µM) against Pseudomonas aeruginosa; 512 µg/mL (≈ 940 µM) in [1]; 256 µg/mL (≈ 470 µM) with Staphylococcus aureus [2]; 128 µg/mL (≈ 235 µM) in the assay on Staphylococcus aureus [3]. The MIC against Bacillus spizizenii was 256 µg/mL (≈ 470 µM); in the assay on Micrococcus luteus, 256 µg/mL (≈ 470 µM); with Cyberlindnera jadinii, 256 µg/mL (≈ 470 µM); in the assay on Aspergillus flavus, 256 µg/mL (≈ 470 µM); in the assay with Saccharomyces cerevisiae, 512 µg/mL (≈ 940 µM); with Candida albicans, 512 µg/mL (≈ 940 µM). In addition, inhibition of growth against Pichia norvegensis (MIC) required 256 µg/mL (≈ 470 µM).

With `CCCCCCCCCCn1c2ccc(C(=O)CCl)cc2c2cc(C(=O)CCl)ccc21`, the MIC against Bacillus was 256 µg/mL (≈ 556 µM); in the assay with Escherichia coli, 512 µg/mL (≈ 1110 µM); in the assay with Pseudomonas aeruginosa, 128 µg/mL (≈ 278 µM); in assay [1], 256 µg/mL (≈ 556 µM); against Staphylococcus aureus [2], 512 µg/mL (≈ 1110 µM); with Staphylococcus aureus [3], 256 µg/mL (≈ 556 µM). Besides, the MIC in the assay with Bacillus spizizenii worked out at 256 µg/mL (≈ 556 µM); against Micrococcus luteus it was 128 µg/mL (≈ 278 µM); in the assay with Cyberlindnera jadinii it was 256 µg/mL (≈ 556 µM); with Aspergillus flavus it was 512 µg/mL (≈ 1110 µM); against Saccharomyces cerevisiae, 256 µg/mL (≈ 556 µM); in the assay with Candida albicans, 256 µg/mL (≈ 556 µM). The molecule also returned an MIC against Pichia norvegensis of 256 µg/mL (≈ 556 µM).

Turning to `OC(Cn1cncn1)(Cn1cncn1)c1ccc(F)cc1F` [FLUCONAZOLE], the MIC with Cyberlindnera jadinii turned out to be 8 µg/mL (≈ 26.1 µM); in the assay with Aspergillus flavus, 256 µg/mL (≈ 836 µM); against Saccharomyces cerevisiae, 16 µg/mL (≈ 52.2 µM); with Candida albicans, 32 µg/mL (≈ 104 µM); with Pichia norvegensis, 32 µg/mL (≈ 104 µM).

Consider `CCCCn1c2ccc(-c3csc(N)n3)cc2c2cc(-c3csc(N)n3)ccc21`, for which the MIC against Bacillus stood at 128 µg/mL (≈ 305 µM); against Escherichia coli it was 128 µg/mL (≈ 305 µM); with Pseudomonas aeruginosa it was 64 µg/mL (≈ 153 µM); in assay [1] it was 128 µg/mL (≈ 305 µM); in the assay on Staphylococcus aureus [2], 256 µg/mL (≈ 610 µM); against Staphylococcus aureus [3], 128 µg/mL (≈ 305 µM). Moreover, the MIC in the assay on Bacillus spizizenii came to 256 µg/mL (≈ 610 µM); against Micrococcus luteus, 128 µg/mL (≈ 305 µM); against Cyberlindnera jadinii, 256 µg/mL (≈ 610 µM); against Aspergillus flavus it was 256 µg/mL (≈ 610 µM); against Saccharomyces cerevisiae, 128 µg/mL (≈ 305 µM); against Candida albicans, 128 µg/mL (≈ 305 µM). This molecule also showed an MIC in the assay with Pichia norvegensis of 64 µg/mL (≈ 153 µM).

For `O=C(N[C@H](CO)[C@H](O)c1ccc([N+](=O)[O-])cc1)C(Cl)Cl` [CHLORAMPHENICOL], the MIC in the assay on Bacillus was 32 µg/mL (≈ 99 µM); in [1], 32 µg/mL (≈ 99 µM); against Staphylococcus aureus [2], 64 µg/mL (≈ 198 µM); against Staphylococcus aureus [3] it was 8 µg/mL (≈ 24.8 µM); against Bacillus spizizenii it was 32 µg/mL (≈ 99 µM); in the assay on Micrococcus luteus it was 64 µg/mL (≈ 198 µM).

Consider `CCCn1c2ccc(-c3csc(N)n3)cc2c2cc(-c3csc(N)n3)ccc21`, for which the MIC came to 256 µg/mL (≈ 631 µM) with Bacillus; 256 µg/mL (≈ 631 µM) in the assay on Escherichia coli; 128 µg/mL (≈ 316 µM) in the assay on Pseudomonas aeruginosa; 256 µg/mL (≈ 631 µM) in assay [1]; 256 µg/mL (≈ 631 µM) against Staphylococcus aureus [2]; 128 µg/mL (≈ 316 µM) with Staphylococcus aureus [3]. The MIC stood at 128 µg/mL (≈ 316 µM) in the assay on Bacillus spizizenii; 128 µg/mL (≈ 316 µM) in the assay with Micrococcus luteus; 128 µg/mL (≈ 316 µM) with Cyberlindnera jadinii; 256 µg/mL (≈ 631 µM) with Aspergillus flavus; 256 µg/mL (≈ 631 µM) in the assay with Saccharomyces cerevisiae; 64 µg/mL (≈ 158 µM) against Candida albicans. For the same molecule, the MIC against Pichia norvegensis is 256 µg/mL (≈ 631 µM).

Consider `CCn1cc(C(=O)O)c(=O)c2cc(F)c(N3CCNCC3)cc21` [NORFLOXACIN], for which the MIC turned out to be 4 µg/mL (≈ 12.5 µM) in the assay on Bacillus; 16 µg/mL (≈ 50.1 µM) against Escherichia coli; 2 µg/mL (≈ 6.26 µM) against Pseudomonas aeruginosa; 4 µg/mL (≈ 12.5 µM) in assay [1]; 8 µg/mL (≈ 25.1 µM) against Staphylococcus aureus [2]; 2 µg/mL (≈ 6.26 µM) against Staphylococcus aureus [3]. In addition, the MIC against Bacillus spizizenii turned out to be 1 µg/mL (≈ 3.13 µM); in the assay on Micrococcus luteus, 2 µg/mL (≈ 6.26 µM).
